Results: US20120101083A1, “S1P1 AGONISTS COMPRISING A BICYCLIC N-CONTAINING RING” (GLAXO GROUP LIMITED, priority 2009, published 2012)
Structures can show the parent of a compound that is named as a salt.

Target: T1, S1P1 (PathHunter CHO-K1 EDG1 β-Arrestin cell line) (Homo sapiens, UniProt P21453)
T1 construct: host or cells: PathHunter CHO-K1 EDG1 β-Arrestin cell line
Assay: S1P-1 β-Arrestin recruitment assay
Assay type: cell-based
Conditions: CHO-K1 EDG1 β-Arrestin cells, chemi-luminescence
Protocol: S1P-1 β-Arrestin Recruitment Assay
β-Arrestin recruitment assays were carried out using the PathHunter CHO-K1 EDG1
β-Arrestin cell line (DiscoveRx Corporation) in a chemi-luminescence detection assay. This cell line stably expresses β-Arrestin 2 and S1P1 fused to complementing portions of β-galactosidase (‘EA’ and ‘pro-link’, respectively) which associate upon Arrestin recruitment to form functional β-galactosidase enzyme.
Cells were grown to 80% confluency in Growth Medium (F12 nutrient HAMS supplemented with 10% heat-inactivated USA FBS, 1% L-glutamax, 800 μg/ml Geneticin and 300 μg/ml Hygromycin). Cells were harvested from the flask using Enzyme Free Cell Dissociation Buffer (Gibco) and washed from flasks with Optimem solution (Gibco). Cells were then centrifuged at 1000 rpm for 2-3 min and resuspended in Assay Buffer (Prepared from Sigma kit H1387 supplemented with 20 ml/L HEPES, 4.7 ml/L NaHCO3, 0.1% pluronic acid F-68 solution, 0.1% BSA and adjusted to pH 7.4 using sodium hydroxide at 1×10^6 cells/ml. Cells were dispensed into assay plates containing compounds (100n1/well of a solution of test compound in 100% DMSO) at 1×10^4 cells/well and incubated at 37° C./5% CO2 for 90 min followed by 15 min at room temperature. 5 μl detection mix (1 part Galacton Star, 5 parts Emerald II, 19 parts Assay Buffer; DiscoveRx) were added per well and the plates incubated at room temperature for 60 min. Luminescence was quantified using a Viewlux plate reader.

T1 sequence (P21453 whole entry): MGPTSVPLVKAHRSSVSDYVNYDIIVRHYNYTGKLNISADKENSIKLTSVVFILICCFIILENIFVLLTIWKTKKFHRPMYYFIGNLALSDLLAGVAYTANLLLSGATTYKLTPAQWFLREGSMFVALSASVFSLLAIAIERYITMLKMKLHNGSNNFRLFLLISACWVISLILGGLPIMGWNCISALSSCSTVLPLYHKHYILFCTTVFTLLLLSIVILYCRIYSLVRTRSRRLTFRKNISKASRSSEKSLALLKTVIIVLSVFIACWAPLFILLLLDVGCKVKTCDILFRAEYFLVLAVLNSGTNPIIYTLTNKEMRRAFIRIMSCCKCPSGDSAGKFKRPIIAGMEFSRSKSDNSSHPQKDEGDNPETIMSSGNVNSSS
T1 sequence (P32121 whole entry partner): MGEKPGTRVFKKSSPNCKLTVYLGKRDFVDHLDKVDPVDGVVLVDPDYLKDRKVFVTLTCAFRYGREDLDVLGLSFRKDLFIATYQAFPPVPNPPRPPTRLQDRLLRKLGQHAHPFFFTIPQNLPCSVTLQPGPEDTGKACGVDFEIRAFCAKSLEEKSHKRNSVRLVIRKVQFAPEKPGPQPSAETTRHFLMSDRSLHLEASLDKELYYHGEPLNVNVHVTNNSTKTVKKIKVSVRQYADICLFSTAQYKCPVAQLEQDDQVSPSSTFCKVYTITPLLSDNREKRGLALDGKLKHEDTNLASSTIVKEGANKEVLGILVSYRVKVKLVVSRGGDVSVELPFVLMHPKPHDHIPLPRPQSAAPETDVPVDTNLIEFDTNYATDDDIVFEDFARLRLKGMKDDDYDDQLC

| Compound | EC50 [nM] |
| --- | --- |
| CC(C)Oc1ccc(-c2nc(-c3ccc4c(c3)CCN(CCC(=O)N(C)C)CC4)no2)cc1C#N [Example 23, 3-[7-(5-{3-Cyano-4-[(1-methylethyl)oxy]phenyl}-1,2,4-oxadiazol-3-yl)-1,2,4,5-tetrahydro-3H-3-benzazepin-3-yl]-N,N-dimethylpropanamide] | ≤ 100 |
| COCCN1CCc2c(cccc2-c2nnc(-c3ccc(OC(C)C)c(C#N)c3)s2)C1 [Example 37, 2-[(1-Methylethyl)oxy]-5-(5-{2-[2-(methyloxy)ethyl]-1,2,3,4-tetrahydro-5-isoquinolinyl}-1,3,4-thiadiazol-2-yl)benzonitrile] | ≤ 100 |
| CC(C)Oc1ccc(-c2nc(-c3cccc4c3CCN(C(=O)CCN)C4)no2)cc1C#N [Example 88, 5-[3-(2-β-alanyl-1,2,3,4-tetrahydro-5-isoquinolinyl)-1,2,4-oxadiazol-5-yl]-2-[(1-methylethyl)oxy]benzonitrile hydrochloride] | ≤ 100 |
| CC(C)Nc1ncc(-c2nc(-c3ccc4c(c3)CCN(C(CO)CO)CC4)no2)cc1C#N [Example 108, 5-(3-{3-[2-hydroxy-1-(hydroxymethyl)ethyl]-2,3,4,5-tetrahydro-1H-3-benzazepin-7-yl}-1,2,4-oxadiazol-5-yl)-2-[(1-methylethyl)amino]-3-pyridinecarbonitrile hydrochloride] | ≤ 100 |
| Cc1c(-c2noc(-c3ccc(OC(C)C)c(C#N)c3)n2)ccc2c1CCN(C(=O)CNC[C@H](O)CO)C2 [Example 126, 5-[3-(2-{N-[(2S)-2,3-dihydroxypropyl]glycyl}-5-methyl-1,2,3,4-tetrahydro-6-isoquinolinyl)-1,2,4-oxadiazol-5-yl]-2-[(1-methylethyl)oxy]benzonitrile hydrochloride] | ≤ 10 |
| Cc1c(-c2noc(-c3ccc(OC(C)C)c(C#N)c3)n2)ccc2c1CCN(C(=O)CNC(CO)CO)C2 [Example 127, 5-[3-(2-{N-[2-hydroxy-1-(hydroxymethyl)ethyl]glycyl}-5-methyl-1,2,3,4-tetrahydro-6-isoquinolinyl)-1,2,4-oxadiazol-5-yl]-2-[(1-methylethyl)oxy]benzonitrile hydrochloride] | ≤ 10 |
| Cc1c(-c2noc(-c3ccc(OC(C)C)c(C#N)c3)n2)ccc2c1CCN(C(=O)CN[C@H](C)CO)C2 [Example 128] | ≤ 10 |

Target: T2, S1P1 receptor (S1P1 expressing RH7777 membranes) (Homo sapiens, UniProt P21453)
T2 construct: expressed in transfected cells; host or cells: RH7777 cells (membranes)
T2 sequence (P21453 whole entry): as the sequence (P21453 whole entry) above
Assay: S1P1 GTPγS assay
Assay type: biochemical
Conditions: tested in one of the above S1P1 assays (two GTPγS formats)
Protocol: The potencies and efficacies of the compounds of this invention for the S1P1 receptor can be determined by GTPγS assay performed on the human cloned receptor as described herein.
Membrane preparation for S1P1 GTPγS assay
All steps were performed at 4° C. Cells were homogenised within a glass Waring blender for 2 bursts of 15 secs in 200 mls of buffer (50 mM HEPES, 1 mM leupeptin, 25 μg/ml bacitracin, 1 mM EDTA, 1 mM PMSF, 2 μM pepstatin A). The blender was plunged into ice for 5 mins after the first burst and 10-40 mins after the final burst to allow foam to dissipate. The material was then spun at 500 g for 20 mins and the supernatant spun for 36 mins at 48,000 g. The pellet was resuspended in the same buffer as above but without PMSF and pepstatin A. The material was then forced through a 0.6 mm needle, made up to the required volume, (usually x4 the volume of the original cell pellet), aliquoted and stored frozen at −80° C.
S1P1 expressing RH7777 membranes (1.5 μg/well) membranes (1.5 μg/well) were homogenised by passing through a 23 G needle. These were then adhered to WGA-coated SPA beads (0.125 mg/well) in assay buffer (HEPES 20 mM, MgCl2 10 mM, NaCl 100 mM and pH adjusted to 7.4 using KOH 5M). GDP 10 μM FAC and saponin 90 μg/ml FAC were also added
After 30 minutes precoupling on ice, the bead and membrane suspension was dispensed into white Greiner polypropylene LV 384-well plates (5 μl/well), containing […] of compound. 5 μl/well [^35S]-GTPγS (0.5 nM for S1P1 or 0.3 nM for S1P3 final radioligand concentration) made in assay buffer was then added to the plates. The final assay cocktail (10.1 μl) was then sealed, spun on a centrifuge, then read immediately on a Viewlux instrument.
Alternatively, after 30 minutes precoupling on ice, the bead and membrane suspension was mixed with ^35S]-GTPγS (0.5 nM final radioligand concentration) in assay buffer (HEPES 20 mM, MgCl2 10 mM, NaCl 100 mM and pH adjusted to 7.4 using KOH 5M) in a 1:1 ratio. The bead, membrane and radioligand suspension was dispensed into white Greiner polypropylene low volume 384-well plates (10 μl/well), containing 0.1 μl of a solution of test compound in 100% DMSO. The final assay cocktail (10.1 μl) was then sealed, spun on a centrifuge, then read immediately on a Viewlux instrument.

| Compound | EC50 [nM] |
| --- | --- |
| N#Cc1cc(-c2nc(-c3ccc4c(c3)CCN(CC(O)CO)CC4)no2)ccc1N1CC(F)C1 (stereo not drawn) [Example 104, 5-{3-[3-(2,3-dihydroxypropyl)-2,3,4,5-tetrahydro-1H-3-benzazepin-7-yl]-1,2,4-oxadiazol-5-yl}-2-(3-fluoro-1-azetidinyl)benzonitrile] | > 10000 |
| CCCOc1ncc(-c2nc(-c3ccc4c(c3)CCN(C(=O)CN)CC4)no2)cc1C#N [Example 107, 5-[3-(3-glycyl-2,3,4,5-tetrahydro-1H-3-benzazepin-7-yl)-1,2,4-oxadiazol-5-yl]-2-(propyloxy)-3-pyridinecarbonitrile] | ≤ 1000 |
| CCCOc1ncc(-c2nc(-c3ccc4c(c3)CCN(C(CO)CO)CC4)no2)cc1C#N [Example 109, 5-(3-{3-[2-hydroxy-1-(hydroxymethyl)ethyl]-2,3,4,5-tetrahydro-1H-3-benzazepin-7-yl}-1,2,4-oxadiazol-5-yl)-2-(propyloxy)-3-pyridinecarbonitrile] | ≤ 1000 |
| CCOc1ncc(-c2nc(-c3ccc4c(c3)CCN(C(CO)CO)CC4)no2)cc1C#N [Example 110, 2-(ethyloxy)-5-(3-{3-[2-hydroxy-1-(hydroxymethyl)ethyl]-2,3,4,5-tetrahydro-1H-3-benzazepin-7-yl}-1,2,4-oxadiazol-5-yl)-3-pyridinecarbonitrile] | ≤ 1000 |
| CCOc1ncc(-c2nc(-c3ccc4c(c3)CCN(C(=O)CN)CC4)no2)cc1C#N [Example 113, 2-(ethyloxy)-5-[3-(3-glycyl-2,3,4,5-tetrahydro-1H-3-benzazepin-7-yl)-1,2,4-oxadiazol-5-yl]-3-pyridinecarbonitrile] | ≤ 1000 |
| CCCOc1ncc(-c2nc(-c3ccc4c(c3)CCN(C[C@H](O)CO)CC4)no2)cc1C#N [Example 115, 5-(3-{3-[(2S)-2,3-dihydroxypropyl]-2,3,4,5-tetrahydro-1H-3-benzazepin-7-yl}-1,2,4-oxadiazol-5-yl)-2-(propyloxy)-3-pyridinecarbonitrile] | ≤ 1000 |
| CC(C)Oc1ccc(-c2nc(-c3ccc4c(c3)CCN(C(=O)C(C)(C)N)CC4)no2)cc1C#N [Example 117, 5-{3-[3-(2-methylalanyl)-2,3,4,5-tetrahydro-1H-3-benzazepin-7-yl]-1,2,4-oxadiazol-5-yl}-2-[(1-methylethyl)oxy]benzonitrile] | ≤ 1000 |
| Cc1c(-c2noc(-c3ccc(OC(C)C)c(C#N)c3)n2)ccc2c1CCN(CC(=O)NC[C@@H](C)O)C2 [Example 120, 2-[6-(5-{3-cyano-4-[(1-methylethyl)oxy]phenyl}-1,2,4-oxadiazol-3-yl)-5-methyl-3,4-dihydro-2(1H)-isoquinolinyl]-N-[(2R)-2-hydroxypropyl]acetamide hydrochloride] | ≤ 10 |
| Cc1c(-c2noc(-c3ccc(OC(C)C)c(C#N)c3)n2)ccc2c1CCN(CC(=O)NC[C@H](C)O)C2 [Example 121, 2-[6-(5-{3-cyano-4-[(1-methylethyl)oxy]phenyl}-1,2,4-oxadiazol-3-yl)-5-methyl-3,4-dihydro-2(1H)-isoquinolinyl]-N-[(2S)-2-hydroxypropyl]acetamide hydrochloride] | ≤ 10 |
| Cc1c(-c2noc(-c3ccc(OC(C)C)c(C#N)c3)n2)ccc2c1CCN(C(=O)CN)CC2 [Example 140, 5-[3-(3-glycyl-6-methyl-2,3,4,5-tetrahydro-1H-3-benzazepin-7-yl)-1,2,4-oxadiazol-5-yl]-2-[(1-methylethyl)oxy]benzonitrile hydrochloride] | ≤ 100 |
| CCCNc1ncc(-c2nc(-c3ccc4c(c3)CCN(C[C@H](O)CO)CC4)no2)cc1C#N [Example 143, 5-(3-{34[(2S)-2,3-dihydroxypropyl]-2,3,4,5-tetrahydro-1H-3-benzazepin-7-yl}-1,2,4-oxadiazol-5-yl)-2-(propylamino)-3-pyridinecarbonitrile hydrochloride] | ≤ 1000 |
| CCCNc1ncc(-c2nc(-c3ccc4c(c3C)CCN(C[C@H](O)CO)CC4)no2)cc1C#N [Example 145, 5-(3-{34[(2S)-2,3-dihydroxypropyl]-6-methyl-2,3,4,5-tetrahydro-1H-3-benzazepin-7-yl}-1,2,4-oxadiazol-5-yl)-2-(propylamino)-3-pyridinecarbonitrile] | ≤ 1000 |
| CCCNc1ncc(-c2nc(-c3ccc4c(c3C)CCN(C(CO)CO)CC4)no2)cc1C#N [Example 149, 5-(3-{3-[2-hydroxy-1-(hydroxymethyl)ethyl]-6-methyl-2,3,4,5-tetrahydro-1H-3-benzazepin-7-yl}-1,2,4-oxadiazol-5-yl)-2-(propylamino)-3-pyridinecarbonitrile] | ≤ 1000 |
| CCCNc1ncc(-c2nc(-c3ccc4c(c3)CCN(C(CO)CO)CC4)no2)cc1C#N [Example 150, 5-(3-{3-[2-hydroxy-1-(hydroxymethyl)ethyl]-2,3,4,5-tetrahydro-1H-3-benzazepin-7-yl}-1,2,4-oxadiazol-5-yl)-2-(propylamino)-3-pyridinecarbonitrile dihydrochloride] | ≤ 1000 |
